Experimental findings from patent US20130324412A1, “N-ALKOXYAMIDES OF 6-(SUBSTITUTED PHENYL)-4-AMINOPICOLINATES AND 2-(SUBSTITUTED PHENYL)-6-AMINO-4-PYRIMIDINECARBOXYLATES AND THEIR USE AS SELECTIVE HERBICIDES FOR CROPS” (DOW AGROSCIENCES LLC, priority 2009, published 2013) are described below.

Assay type in all cases: in vivo
In assay [1] the test system is velvetleaf (Abutilon theophrasti). Nature of the assay: General postemergence herbicidal activity, velvetleaf. The following applies: post-emergence, 336 h, postemergence, after 14 d, 0 = no injury, 100 = complete kill, read-out: ABUTH % Visual Injury; for pest or weed control at 280 g/ha: 280 g ai/ha; for pest or weed control at 70 g/ha: 70 g ai/ha; for pest or weed control at 140 g/ha: 140 g ai/ha; for pest or weed control at 35 g/ha: 35 g ai/ha. On the procedure:
(§1) Seeds or nutlets of the desired test plant species were planted in Sun Gro MetroMix® 360 planting mixture, which typically has a pH of 6.0 to 6.8 and an organic matter content of about 30 percent, in plastic pots with a surface area of 64 square centimeters (cm^2). When required to ensure good germination and healthy plants, a fungicide treatment and/or other chemical or physical treatment was applied. The plants were grown for 7-21 days (d) in a greenhouse with an approximate 15-hour (h) photoperiod which was maintained at about 23-29° C. during the day and 22-28° C. during the night. Nutrients and water were added on a regular basis and supplemental lighting was provided with overhead metal halide 1000-Watt lamps as necessary. The plants were employed for testing when they reached the first or second true leaf stage.
(§2) A weighed amount, determined by the highest rate to be tested, of each test compound was dissolved in 4 mL of a 97:3 volume per volume (v/v) mixture of acetone and dimethyl sulfoxide (DMSO) to obtain concentrated stock solutions. […] The concentrated stock solutions obtained were diluted with 20 mL of an aqueous mixture containing acetone, water, isopropyl alcohol, DMSO, Atplus 411F crop oil concentrate, and Triton X-155 surfactant in a 48.5:39:10:1.5:1.0:0.02 v/v ratio to obtain spray solutions containing the highest application rates. Additional application rates were obtained by serial dilution of 12 mL of the high rate solution into a solution containing 2 mL of 97:3 v/v mixture of acetone and DMSO and 10 mL of an aqueous mixture containing acetone, water, isopropyl alcohol, DMSO, Atplus 411F crop oil concentrate, and Triton X-155 surfactant in a 48.5:39:10:1.5:1.0:0.02 v/v ratio to obtain ½×, ¼×, ⅛× and 1/16× rates of the high rate. Compound requirements are based upon a 12 mL application volume at a rate of 187 liters per hectare (L/ha). Formulated compounds were applied to the plant material with an overhead Mandel track sprayer equipped with 8002E nozzles calibrated to deliver 187 L/ha over an application area of 0.503 square meters (m^2) at a spray height of 18 inches (43 cm) above the average plant canopy height. Control plants were sprayed in the same manner with the solvent blank.
(§3) The treated plants and control plants were placed in a greenhouse as described above and watered by sub-irrigation to prevent wash-off of the test compounds. After 14 d, the condition of the test plants as compared with that of the untreated plants was determined visually and scored on a scale of 0 to 100 percent where 0 corresponds to no injury and 100 corresponds to complete kill.

The subject of assay [2] is lambsquarters (Chenopodium album). The assay can be described thus: General postemergence herbicidal activity, lambsquarters. The note with it: post-emergence, 336 h, postemergence, after 14 d, 0 = no injury, 100 = complete kill, read-out: CHEAL % Visual Injury; for pest or weed control at 280 g/ha: 280 g ai/ha; for pest or weed control at 70 g/ha: 70 g ai/ha; for pest or weed control at 140 g/ha: 140 g ai/ha; for pest or weed control at 35 g/ha: 35 g ai/ha. On the procedure: as §1, §2, §3

A further assay relates to corn (Zea mays). The assay can be described thus: General postemergence herbicidal activity, corn. The following applies: post-emergence, 336 h, postemergence, after 14 d, 0 = no injury, 100 = complete kill, read-out: ZEAMX % Visual Injury; for plant injury at 280 g/ha: 280 g ai/ha; for plant injury at 70 g/ha: 70 g ai/ha; for plant injury at 140 g/ha: 140 g ai/ha; for plant injury at 35 g/ha: 35 g ai/ha. On the procedure: as §1, §2, §3

For assay [3], the system named is wild buckwheat (Polygonum convululus). The assay can be described thus: General postemergence herbicidal activity, wild buckwheat. The note with it: post-emergence, 336 h, postemergence, after 14 d, 0 = no injury, 100 = complete kill, read-out: POLCO % Visual Injury; for pest or weed control at 280 g/ha: 280 g ai/ha; for pest or weed control at 70 g/ha: 70 g ai/ha; for pest or weed control at 140 g/ha: 140 g ai/ha; for pest or weed control at 35 g/ha: 35 g ai/ha. Here is the method: as §1, §2, §3

On to `Nc1cc(Cl)nc(C(=O)NOCc2ccc(F)cc2)c1Cl` [Compound 34, 4-Amino-3,6-dichloro-N-(4-fluorobenzyloxy)picolinamide], for which the pest or weed control at 280 g/ha in assay [1] stood at 65%; in assay [2], 100%; in assay [3], 100%. Besides, the plant injury at 280 g/ha in the assay on corn (Zea mays) was 20%.

Turning to `CCCCONC(=O)c1nc(-c2ccc(Cl)c(OC)c2F)cc(N)c1Cl` [Compound 46, 4-Amino-N-butoxy-3-chloro-6-(4-chloro-2-fluoro-3-methoxyphenyl)picolinamide], the pest or weed control at 70 g/ha in assay [1], in assay [2] and in assay [3] was 100% throughout. The plant injury at 70 g/ha with corn (Zea mays) worked out at 25%.

As to `COc1c(Cl)ccc(-c2cc(N)c(Cl)c(C(=O)NOCc3ccc(Cl)cc3)n2)c1F` [Compound 15, 4-Amino-3-chloro-6-(4-chloro-2-fluoro-3-methoxyphenyl)-N-(4-chloro-benzyloxy)picolinamide], the pest or weed control at 70 g/ha in assay [1], in assay [2] and in assay [3] was 100% in each case. In the assay with corn (Zea mays), the plant injury at 70 g/ha was 10%.

On to `COc1c(Cl)ccc(-c2cc(N)c(Cl)c(C(=O)NOC3C=CCCC3)n2)c1F` (stereo not shown) [Compound 18, 4-Amino-3-chloro-6-(4-chloro-2-fluoro-3-methoxyphenyl)-N-(cyclohex-2-enyl-oxy)picolinamide], for which the pest or weed control at 140 g/ha in assay [1], in assay [2] and in assay [3] was 100% in each case. For the same molecule, the plant injury at 140 g/ha in the assay with corn (Zea mays) was 5%.

Consider `C#CCONC(=O)c1nc(-c2ccc(Cl)c(OC)c2F)cc(N)c1Cl` [Compound 13, 4-Amino-3-chloro-6-(4-chloro-2-fluoro-3-methoxyphenyl)-N-(2-propynyloxy)picolinamide], for which the pest or weed control at 70 g/ha in assay [1], in assay [2] and in assay [3] was 100% throughout. Also, the plant injury at 70 g/ha in the assay on corn (Zea mays) is 0%.

With `C=CCONC(=O)c1nc(Cl)cc(N)c1Cl` [Compound 27, N-(2-Propenyloxy)-4-amino-3,6-dichloropicolinamide], the pest or weed control at 280 g/ha in assay [1] was 35%; in assay [2], 100%; in assay [3], 100%. For the same molecule, the plant injury at 280 g/ha in the assay on corn (Zea mays) was 0%.

Take `COc1c(Cl)ccc(-c2cc(N)c(Cl)c(C(=O)N(C)O)n2)c1F` [Compound 24, 4-Amino-3-chloro-6-(4-chloro-2-fluoro-3-methoxyphenyl)-N-hydroxy-N-methylpicolinamide]: the pest or weed control at 70 g/ha came to 90% in assay [1], 95% in assay [2] and 80% in assay [3]. Besides, the plant injury at 70 g/ha in the assay on corn (Zea mays) is 50%.

`C=CCONC(=O)c1nc(-c2ccc(Cl)c(OC)c2F)nc(N)c1C=C` [Compound 10, N-(2-Propenyloxy)-6-amino-2-(4-chloro-2-fluoro-3-methoxyphenyl)-5-vinylpyrimidine-4-carboxamide]: the pest or weed control at 140 g/ha in assay [1] stood at 100%; in assay [2], 85%; in assay [3] it was 15%. Besides, in the assay with corn (Zea mays), the plant injury at 140 g/ha was found to be 15%.

As to `COc1c(Cl)ccc(-c2cc(N)c(Cl)c(C(=O)NOCC3CC3)n2)c1F` [Compound 32, 4-Amino-3-chloro-6-(4-chloro-2-fluoro-3-methoxyphenyl)-N-(cyclopropyl-methoxy)picolinamide], the pest or weed control at 35 g/ha in assay [1], in assay [2] and in assay [3] was 100% each time. In addition, the plant injury at 35 g/ha in the assay with corn (Zea mays) is 10%.

`C=CCONC(=O)c1nc(C2CC2)nc(N)c1Cl` [Compound 11, N-(2-Propenyloxy)-6-amino-5-chloro-2-cyclopropylpyrimidine-4-carboxamide]: the pest or weed control at 140 g/ha in assay [1] was 40%; in assay [2], 100%; in assay [3], 100%. For the same molecule, in the assay on corn (Zea mays), the plant injury at 140 g/ha is 20%.

Consider `C=CCON(C)C(=O)c1nc(-c2ccc(Cl)c(OC)c2F)cc(N)c1Cl` [Compound 26, N-(2-Propenyloxy)-4-amino-3-chloro-6-(4-chloro-2-fluoro-3-methoxyphenyl)-N-methylpicolinamide], for which the pest or weed control at 140 g/ha in assay [1] was determined as 95%; in assay [2], 100%; in assay [3], 95%. The plant injury at 140 g/ha in the assay with corn (Zea mays) stood at 0%.

Regarding `COc1c(Cl)ccc(-c2cc(N)c(Cl)c(C(=O)NOCc3ccco3)n2)c1F` [Compound 42, 4-Amino-3-chloro-6-(4-chloro-2-fluoro-3-methoxyphenyl)-N-(furan-2-yl-methoxy)picolinamide], the pest or weed control at 70 g/ha in assay [1], in assay [2] and in assay [3] was 100% each time. Further, the plant injury at 70 g/ha in the assay with corn (Zea mays) came to 15%.

Turning to `C=C(Cl)CONC(=O)c1nc(-c2ccc(Cl)c(OC)c2F)cc(N)c1Cl` [Compound 29, 4-Amino-3-chloro-6-(4-chloro-2-fluoro-3-methoxyphenyl)-N-(2-chloro-2-propenyl-oxy)picolinamide], the pest or weed control at 35 g/ha in assay [1], in assay [2] and in assay [3] was 100% throughout. Also, in the assay with corn (Zea mays), the plant injury at 35 g/ha was 50%.

In the case of `COc1c(Cl)ccc(-c2cc(N)c(Cl)c(C(=O)NOCC3=CCCCC3)n2)c1F` [Compound 44, 4-Amino-3-chloro-6-(4-chloro-2-fluoro-3-methoxyphenyl)-N-(cyclohexenyl-methoxy)picolinamide], the pest or weed control at 140 g/ha in assay [1] is 98%; in assay [2] it was 98%; in assay [3], 100%. Besides, the plant injury at 140 g/ha in the assay with corn (Zea mays) stood at 5%.

For `COc1c(Cl)ccc(-c2cc(N)c(Cl)c(C(=O)N(C)OC)n2)c1F` [Compound 6, 4-Amino-3-chloro-6-(4-chloro-2-fluoro-3-methoxyphenyl)-N-methoxy-N-methyl-picolinamide], the pest or weed control at 70 g/ha in assay [1], in assay [2] and in assay [3] was 100% in each case. Besides, the plant injury at 70 g/ha in the assay with corn (Zea mays) is 0%.

`COc1c(Cl)ccc(-c2cc(N)c(Cl)c(C(=O)NOCCC#N)n2)c1F` [Compound 50, 4-Amino-3-chloro-6-(4-chloro-2-fluoro-3-methoxyphenyl)-N-(2-cyanoethoxy)picolinamide]: the pest or weed control at 280 g/ha in assay [1] came out at 100%; in assay [2], 100%; in assay [3] it was 90%. Also, the plant injury at 280 g/ha in the assay with corn (Zea mays) turned out to be 10%.
